These results are taken from US20110217412A1, “CHOLESTEROL LOWERING SUPPLEMENT AND LOW CHOLESTEROL EGG PRODUCED BY USING THE SAME” (JINIS BIOPHARMACEUTICALS CO., priority 2004, published 2011).

Series [1] has as its system ISA brown hens. The experiment in a line: Egg laying performance of hens fed supplemented diet (egg weight, egg production). Type of series: in vivo. Conditions: for Egg production: 6 weeks. The procedure:
(§1) Healthy ISA brown hens, 45-week old, were assigned randomly to each dietary group (control group, 8 birds; experimental group, 6 birds each). Each bird was placed in an individual cage in an environmentally controlled room (25° C., 50% relative humidity, 16L:8D). The hens were allowed for 2 weeks in which to adapt to the feed with no additives and the housing. Control birds were fed a commercial diet based on corn and soybean meal (Table 1), while birds in experimental groups were fed diets supplemented with 0.003 or 0.03% of compactin (Sigma Aldrich Korea) for 6 weeks. Feed and water were provided ad libitum throughout the experiment. Feed consumption, egg production and egg weight were recorded daily. Egg production was expressed as percent hen day production; (100×number of eggs laid)/(number of hens×days).
The effects of 0.003% or 0.03% compactin on the laying performance of 45-week old ISA brown hens were investigated (Table 2). Egg weight was maintained at more than 60 grams after 6 weeks of oral administrations of compactin at both doses. […] Maintenance of laying performance with compactin feeding is of contrast to the previous art in which atorvastatin reduced egg production down to 70% after feeding for 5-week.
Egg production and yolk cholesterol analysis was performed with 0.003 and 0.03% pravastatin administered group with the same procedure as described in Example 1 above. Hen performance was investigated by measuring egg weight and egg production as in Table 4. Pravastatin group had maintained above 80% of egg production rate after 6-week administration, same as control.
(§2) Egg production and yolk cholesterol analysis was performed with the same procedure as described in Example 1 above except 0.5 and 1% of Streptomyces cell precipitates and bioconversion reaction broth were administered instead of compactin. Hen performance was investigated by measuring egg weight and egg production as in Table 6.

The subject of series [2] is ISA brown hens. The experiment in a line: Egg cholesterol analysis (yolk weight, gas chromatography of yolk cholesterol) of hens fed supplemented diet. It is filed as in vivo. The following applies: compared to control. As to the method:
as §1
For egg cholesterol analysis, eggs from each bird were collected and egg yolk was separated, weighed, and sampled for analysis. Lipids from eggs were extracted by the method of Folch et al. (1957). Briefly, one gram of sample was saponified with 3 mL of 33% KOH and incubated with 30 mL of 95% methanol in a 65° C. water bath for 90 min. After saponification, 10 mL hexane and 3 mL water were added, followed by vigorous shaking for 10 min. 5α-cholestan (Sigma C-8300) was used as an internal standard. Cholesterol content was determined by a gas chromatography (Shimadzu, Japan) using column VB-1 (30 m×0.25 mm×0.25 μm, VICI Inc.) with a split ratio of 100:1 and nitrogen as carrier gas for a column flow rate of 0.54 mL/min. Injector, column, and detector temperatures were 275° C., 290° C., and 340° C., respectively. […] The average control yolk weight was 17.2 g. […] Administration of compactin caused the significant reduction in yolk weight, compared to the control with 12.8 mg cholesterol per gram of yolk. When expressed as total yolk cholesterol content, percentage changes compared to that of control were 16% and 29% at 0.003% and 0.03% compactin, respectively.
Streptomyces cell precipitates and cell culture broth after compactin bioconversion were used as cholesterol lowering supplements respectively. First, compactin bioconversion was done as following. Single colony of streptomyces carbophilus was inoculated into 100 ml R2YE in 500 ml erlenmyer flask and incubated at 27° C. at 200 rpm for 3 days. After incubation, 10 ml of seed culture was added to 100 ml of conversion media (glucose 2.0%, corn steep liquor 0.2%, K2HPO4 0.15%, yeast extract 0.1%, MgSO4.7H2O 0.15%, ZnSO47H2O 0.001%, NH4NO3 0.1%, peptone 0.1%, pH 7.0) in 500 ml flask and incubated at 27° C. at 200 rpm for 3 days. Then, filter sterilized compactin salt was added into culture up to 0.1% weight of culture and incubated for another 4 days. After bioconversion reaction, culture media was analyzed by TLC to confirm the presence of compactin and pravastatin. This culture was freeze dried for 24 hours and then used as cholesterol lowering supplements. Also Streptomyces cells were obtained from bioconversion reaction by centrifugation at 3,000×g. Streptomyces cell precipitates recovered as pellets was dried at 60° C. and used as cholesterol lowering supplements. Streptomyces cell precipitates as well as bioconversion reaction broth was dried and used as cholesterol lowering supplements as shown in Example 1. Egg production and cholesterol amount were measured afterward.
as §2

For series [3] the following is noted: cited from earlier work.
Series [4] concerns hens. Conditions: cited from earlier work.
The test system of series [5] is hens. Conditions: cited from earlier work. This is another data set of the same source.
Setting [6] is: 0.003 weight % pravastatin in feed.
The mark [7] stands for this setting: 0.03 weight % pravastatin in feed.

Turning to `CC[C@H](C)C(=O)O[C@H]1CCC=C2C=C[C@H](C)[C@H](CC[C@@H]3C[C@@H](O)CC(=O)O3)[C@H]21` [Compactin, compactin], the “Difference in egg production compared to the control group” value in the series with ISA brown hens [1] (in vivo) is given as “did not cause any difference in egg production”. Also, the “Reduction rates in the production of eggs” value with ISA brown hens [1] (in vivo) is reported as “at most 5%”. Besides, the Cholesterol content change in the series on ISA brown hens [2] (0.003 weight % compactin in feed) is −16%; in the series on ISA brown hens [2] (0.003 weight % compactin in feed, listed as compactin), -16%; with ISA brown hens [2] (0.03 weight % compactin in feed), −29%; in the series on ISA brown hens [2] (0.03 weight % compactin in feed, listed as compactin), -29%. Moreover, the “Toxicity in clinical trials” value in series [3] is listed as “serious toxicity”.

As for `CC(C)c1c(C(=O)Nc2ccccc2)c(-c2ccccc2)c(-c2ccc(F)cc2)n1CC[C@@H](O)C[C@@H](O)CC(=O)O` [atorvastatin], the “Effect on the cholesterol content in eggs” value in the series with hens [4] (according to U.S. Pat. No. 6,177,121) was “distinctly effective”. For the same compound, the “Reduction of egg production versus control group” value in the series with hens [5] (2, 3 and 4 weeks after administration, Table 2 of U.S. Pat. No. 6,177,121) is 20%. Further, the “Egg production reduced down to” value in the series on hens [5] (after feeding for 5-week) is 70%.

For `CC[C@H](C)C(=O)O[C@H]1C[C@@H](C)C=C2C=C[C@H](C)[C@H](CC[C@@H]3C[C@@H](O)CC(=O)O3)[C@H]21` [lovastatin], in the series on hens [4] (dose of 0.03%), the “Reduction in cholesterol content in eggs” value was approximately 3.9%.

Turning to pravastatin, the Egg production turned out to be 84% in the series with ISA brown hens [1] (setting [6]) and 82% in the series with ISA brown hens [1] (setting [7]). Further, in the series on ISA brown hens [1] (after 6-week administration of pravastatin (0.003 and 0.03%)), the “Egg production rate maintained” value was “above 80%”. For the same compound, the Cholesterol content change in the series on ISA brown hens [2] (setting [6]) is on record as −6%; in the series with ISA brown hens [2] (setting [7]), −24%.
